This is an account of results in PubChem BioAssay (NCI).

Among the test systems are BT-549 breast; DU-145 prostate; HCT-116 colon; HOP-62 NSCLC; LOX IMVI melanoma; NCI-H23 lung; OVCAR-8 ovarian; PC-3 prostate; SN12C renal; UACC-62 melanoma.
Holding throughout (assay): inhibition of tumour cell growth, NCI panel, 48 h

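Briefly, cells in 96-well plates were exposed to five compound concentrations for 48 h, and endpoints were estimated by linear interpolation. GI50: concentration for 50% inhibition of growth. TGI marks complete inhibition of growth.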

Consider `O=c1ccc2ccc(CBr)cc2o1`, for which the TGI in the test on BT-549 breast worked out at 8.99 µM; in the test with DU-145 prostate it was 30.8 µM; in the test on HCT-116 colon, 3.74 µM; with HOP-62 NSCLC, 30.6 µM; with LOX IMVI melanoma, 3.01 µM; in the test on NCI-H23 lung, 8.91 µM. Besides, the TGI was 4.06 µM in the test on OVCAR-8 ovarian, more than 100 µM in the test with PC-3 prostate, 7.22 µM with SN12C renal and 23.1 µM in the test with UACC-62 melanoma.

Consider `CN1CCN(C(=O)CCC(=O)Nc2cc3c(c4ccccc24)-c2ccc4ccccc4c2C3)CC1`, for which the TGI came to 2.84 µM with BT-549 breast; 3.52 µM with DU-145 prostate; 2.95 µM with HCT-116 colon; 3.15 µM with HOP-62 NSCLC; 4.04 µM with LOX IMVI melanoma; 3.47 µM in the test with NCI-H23 lung. Also, the TGI is 4.38 µM in the test with OVCAR-8 ovarian, 3.37 µM in the test with PC-3 prostate, 3.64 µM in the test on SN12C renal and 3.32 µM in the test on UACC-62 melanoma.

Take `C=C(C)[C@@H](O)[C@H](O)C[C@H](C)C1CC[C@]2(C)C1=CC[C@@H]1[C@@]3(C)CC[C@@H](OC(C)=O)C(C)(C)[C@@H]3C[C@@H](OC3OC(COC(C)=O)C(O)C(O)C3O)[C@]12C` (stereo partly drawn): the TGI was determined as 10.3 µM with BT-549 breast; 11.1 µM with DU-145 prostate; 5.88 µM in the test with HCT-116 colon; 10.1 µM in the test on HOP-62 NSCLC; 3.31 µM in the test with LOX IMVI melanoma; 16.1 µM in the test on NCI-H23 lung. Moreover, the TGI was found to be 13.8 µM with OVCAR-8 ovarian, 6.59 µM with PC-3 prostate, 11.3 µM in the test on SN12C renal and 4.52 µM in the test with UACC-62 melanoma.

On to `COc1cc(C2c3cc4c(cc3OC(NNc3ccccc3)C2C)OCO4)cc(OC)c1OC` (stereo not drawn), for which the TGI with BT-549 breast is 33.4 µM; in the test on DU-145 prostate, more than 31.2 µM; in the test on HCT-116 colon, 13.9 µM; in the test on HOP-62 NSCLC it was 10.4 µM; with LOX IMVI melanoma, more than 37.8 µM; in the test on NCI-H23 lung, more than 100 µM. The TGI is more than 38.1 µM in the test on OVCAR-8 ovarian, more than 56.3 µM in the test on PC-3 prostate, more than 62 µM in the test with SN12C renal and more than 43.5 µM with UACC-62 melanoma.

As to `CCC(=O)Nc1cccc(N=Cc2ccc(OC(=O)/C=C\c3ccccc3)cc2)c1`, the TGI with BT-549 breast, in the test with DU-145 prostate, with HCT-116 colon, in the test on HOP-62 NSCLC, in the test on LOX IMVI melanoma and with NCI-H23 lung was more than 75 µM throughout. For the same compound, the TGI in the test with OVCAR-8 ovarian, in the test on PC-3 prostate, with SN12C renal and with UACC-62 melanoma was more than 75 µM in each case.

On to `O=C1/C(=C/c2ccc(O)cc2)CCCC1CN1CCCCC1` (stereo not drawn), for which the TGI with BT-549 breast was determined as 6.89 µM; in the test with DU-145 prostate it was 16.6 µM; in the test on HCT-116 colon it was 3.22 µM; in the test with HOP-62 NSCLC it was 29.8 µM; in the test on LOX IMVI melanoma, 3.09 µM; in the test with NCI-H23 lung, 11.8 µM. Also, the TGI with OVCAR-8 ovarian was determined as 13.6 µM; in the test with PC-3 prostate, 10 µM; with SN12C renal, 7.05 µM; in the test on UACC-62 melanoma, 3.46 µM.

As for `Cc1ccc(Cc2cc(N3CCN(c4cccc(Cl)c4)CC3)nnc2C)cc1`, the TGI with BT-549 breast, in the test on DU-145 prostate, with HCT-116 colon, in the test with HOP-62 NSCLC, in the test with NCI-H23 lung and with OVCAR-8 ovarian was more than 100 µM in each case. In addition, the TGI in the test with PC-3 prostate, in the test on SN12C renal and in the test on UACC-62 melanoma was more than 100 µM each time.

On to `COC(=O)Nc1nc2ccc(S(=O)(=O)Nc3ccccn3)cc2[nH]1`, for which the TGI with BT-549 breast, in the test with DU-145 prostate, in the test with HCT-116 colon, in the test on HOP-62 NSCLC, in the test on LOX IMVI melanoma and in the test with NCI-H23 lung was more than 100 µM throughout. Besides, the TGI in the test on OVCAR-8 ovarian, with PC-3 prostate, in the test on SN12C renal and with UACC-62 melanoma was more than 100 µM in each case.

`COc1cc(C2c3cc4c(cc3OC(NNC(N)=O)C2C)OCO4)cc(OC)c1OC` (stereo not drawn): the TGI with BT-549 breast is more than 100 µM; in the test with DU-145 prostate, more than 100 µM; in the test on HCT-116 colon, more than 36.5 µM; in the test on LOX IMVI melanoma, more than 100 µM; in the test with NCI-H23 lung, more than 100 µM; with OVCAR-8 ovarian, more than 100 µM. The TGI in the test with PC-3 prostate, with SN12C renal and in the test with UACC-62 melanoma was more than 100 µM each time.

As to `COC(=O)c1c(O)ccc2c1c1cc3ccccc3cc1n2Cc1cc(OC)cc(OC)c1`, the TGI in the test with BT-549 breast is more than 100 µM; in the test with DU-145 prostate, 59.1 µM; with HCT-116 colon, more than 100 µM; in the test with HOP-62 NSCLC, more than 100 µM; in the test on LOX IMVI melanoma, more than 100 µM; in the test with NCI-H23 lung, more than 100 µM. In addition, the TGI with OVCAR-8 ovarian is more than 100 µM; with PC-3 prostate it was more than 32.6 µM; in the test with SN12C renal, more than 100 µM; in the test with UACC-62 melanoma it was more than 100 µM.

Regarding `Cc1ccc(S(=O)(=O)N2CCC[C@@H]2C(=O)O[C@@H]2CCC3CC=CC32)cc1` (stereo partly drawn), the TGI with BT-549 breast is 44.3 µM; in the test with DU-145 prostate it was more than 100 µM; in the test on HCT-116 colon it was more than 100 µM; in the test on HOP-62 NSCLC, 97.2 µM; in the test with LOX IMVI melanoma it was 38.9 µM; in the test with NCI-H23 lung, more than 100 µM. The TGI in the test on OVCAR-8 ovarian was more than 100 µM; in the test with PC-3 prostate it was 69.6 µM; in the test with SN12C renal, more than 100 µM; with UACC-62 melanoma, more than 100 µM.

As to `COc1ccc2c(c1)N(Cc1ccc(Cl)cc1)CCC2N1CCCC1=O` (stereo not drawn), the GI50 in the test with BT-549 breast is 3.23 µM; in the test on DU-145 prostate, 2.66 µM; in the test with HCT-116 colon, 5.24 µM; in the test on HOP-62 NSCLC, 4.27 µM; in the test on LOX IMVI melanoma, 3.54 µM; in the test on NCI-H23 lung, 4.37 µM. The GI50 with OVCAR-8 ovarian was 4.6 µM; in the test on PC-3 prostate, 3 µM; in the test on SN12C renal it was 4.68 µM; in the test on UACC-62 melanoma, 3.25 µM. Also, the TGI in the test with BT-549 breast was 19.6 µM; in the test with DU-145 prostate, more than 100 µM; in the test on HCT-116 colon, more than 100 µM; with HOP-62 NSCLC, 42.7 µM; in the test on LOX IMVI melanoma it was more than 100 µM; with NCI-H23 lung, 57.2 µM. Moreover, the TGI in the test on OVCAR-8 ovarian worked out at 57.3 µM; in the test on PC-3 prostate it was 38.7 µM; with SN12C renal it was 89.1 µM; in the test with UACC-62 melanoma, 14.9 µM.
